Assay results taken from ChEMBL document CHEMBL4808242, “Discovery of GNE-502 as an orally bioavailable and potent degrader for estrogen receptor positive breast cancer” (Bioorg Med Chem Lett, 2021).
In brackets after ≈: the same amount, converted by molar mass. Activity calls are given as the source filed them. No cut-off for these calls is given here.

Legend:
[1] = Kinetic solubility of compound at pH 7.4; type: physicochemical; conditions: buffer, read-out: Kinetic_solubility
[2] = molecular target: T1, Estrogen receptor (Homo sapiens, UniProt P03372); test: Induction of ERalpha degradation in human MCF7 cells by immunofluorescence assay; type: cell-based
T1 sequence (P03372 whole entry): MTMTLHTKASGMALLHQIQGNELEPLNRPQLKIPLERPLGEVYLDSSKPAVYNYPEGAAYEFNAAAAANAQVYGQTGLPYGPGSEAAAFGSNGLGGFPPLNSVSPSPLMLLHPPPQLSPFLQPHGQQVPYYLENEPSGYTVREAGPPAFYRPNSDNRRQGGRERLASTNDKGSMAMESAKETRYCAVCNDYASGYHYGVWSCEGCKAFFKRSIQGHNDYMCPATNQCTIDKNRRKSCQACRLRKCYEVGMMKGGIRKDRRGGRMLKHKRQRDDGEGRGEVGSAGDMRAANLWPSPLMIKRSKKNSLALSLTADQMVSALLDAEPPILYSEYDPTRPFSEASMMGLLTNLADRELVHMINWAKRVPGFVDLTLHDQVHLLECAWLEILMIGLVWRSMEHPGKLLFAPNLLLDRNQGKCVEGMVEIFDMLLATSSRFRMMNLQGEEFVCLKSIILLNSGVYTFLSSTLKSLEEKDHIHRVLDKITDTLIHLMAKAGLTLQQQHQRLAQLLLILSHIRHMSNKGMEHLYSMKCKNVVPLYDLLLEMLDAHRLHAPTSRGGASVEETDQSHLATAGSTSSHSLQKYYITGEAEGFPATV

[3] = Distribution coefficient, logD of the compound at pH 7.4; conditions: octanol/water
[4] = molecular target: T2, Estrogen receptor (Homo sapiens) (UniProt P03372); test: Induction of ERalpha degradation in human MCF7 cells assessed as maximum degradation by immunofluorescence assay relative to control; type: cell-based
T2 sequence (whole entry): T1 sequence (P03372 whole entry)

[5] = Apparent permeability across basolateral to apical side in MDCK cells; type: ADME, cell-based, Canis lupus familiaris; conditions: dog
[6] = in vitro; conditions: dog, MDCK
[7] = Protein binding in human plasma assessed as unbound fraction; type: ADME, cell-free
[8] = tested on: MCF7; test: Antitumor activity against human MCF7 cells xenografted in mouse assessed as tumor growth inhibition at 60 mg/kg, po QD for 4 weeks; type: functional, organism-based
[9] = tested on: MCF7; test: Antiproliferation activity against human MCF7 cells assessed as reduction in cell viability measured by CellTiter-Glo luminescent assay; type: functional, cell-based
[10] = Oral bioavailability in rat; type: ADME, organism-based; conditions: in vivo
[11] = Volume of distribution at steady state in rat; type: ADME; conditions: in vivo, read-out: Vdss
[12] = molecular target: T1, Estrogen receptor; test: Displacement of fluorescein PGC1alpha from recombinant ERalpha (unknown origin)
[13] = Clearance in rat at 1 mg/kg, iv; type: ADME, organism-based; conditions: in vivo
[14] = Half life in rat; type: ADME; conditions: in vivo
[15] = tested on: Estrogen receptor (Homo sapiens), P03372 [Y537S]; test: Induction of ERalpha Y537S mutant degradation expressed in human MCF7 cells assessed as maximum degradation by immunofluorescence assay relative to control; type: cell-based
[16] = AUC in mouse at 100 mg/kg, po; type: ADME, organism-based; design: dose 100 mg/kg; conditions: in vivo
[17] = molecular target: Estrogen receptor (Homo sapiens, UniProt P03372, Y537S); test: Induction of ERalpha Y537S mutant degradation expressed in human MCF7 cells by immunofluorescence assay; type: cell-based
[18] = Toxicity in mouse xenografted with human MCF7 cells assessed as body weight loss at 1 to 100 mg/kg, po administered for 4 weeks; type: organism-based; conditions: in vivo, 672 h, dose 1-100 mg/kg
[19] = AUC in mouse at 10 mg/kg, po; type: ADME, organism-based; design: dose 10 mg/kg; conditions: in vivo
[20] = tested on: MCF7; test: Antitumor activity against human MCF7 cells xenografted in mouse assessed as tumor growth inhibition at 100 mg/kg, po measured after 4 weeks; type: functional, organism-based
[21] = tested on: MCF7; test: Antitumor activity against human MCF7 cells xenografted in po dosed mouse assessed as tumor growth inhibition measured after 4 weeks; type: functional, organism-based; conditions: dose 10-100 mg/kg

Sequence of Estrogen receptor (Homo sapiens), P03372 [Y537S] (P03372 whole entry Y537S): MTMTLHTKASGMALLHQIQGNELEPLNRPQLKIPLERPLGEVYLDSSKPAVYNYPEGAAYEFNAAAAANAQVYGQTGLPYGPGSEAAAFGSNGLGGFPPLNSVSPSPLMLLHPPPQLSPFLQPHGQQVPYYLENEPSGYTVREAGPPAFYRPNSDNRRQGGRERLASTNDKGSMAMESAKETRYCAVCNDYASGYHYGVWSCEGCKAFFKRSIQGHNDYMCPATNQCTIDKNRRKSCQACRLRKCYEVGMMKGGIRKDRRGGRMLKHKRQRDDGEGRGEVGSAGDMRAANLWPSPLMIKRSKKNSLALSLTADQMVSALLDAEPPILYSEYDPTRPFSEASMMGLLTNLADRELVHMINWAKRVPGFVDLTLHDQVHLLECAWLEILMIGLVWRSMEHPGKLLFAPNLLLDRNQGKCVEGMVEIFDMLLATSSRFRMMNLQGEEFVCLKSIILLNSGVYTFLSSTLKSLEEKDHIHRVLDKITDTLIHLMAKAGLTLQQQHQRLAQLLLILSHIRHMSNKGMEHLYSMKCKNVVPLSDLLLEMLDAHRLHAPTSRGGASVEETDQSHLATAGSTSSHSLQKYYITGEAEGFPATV
Sequence of Estrogen receptor (Homo sapiens, UniProt P03372, Y537S) (P03372 whole entry Y537S): as above

| Structure (SMILES) | solubility kinetic [1] [µM] | DC50 [2] [nM] | logD [3] | %max [4] [%] | other results |
| --- | --- | --- | --- | --- | --- |
| C[C@@H]1Cc2c([nH]c3ccccc23)[C@@H](c2c(F)cc(OCCN3CC(CF)C3)cc2F)N1C(=O)C1CNC1 | 96 (≈ 49.2 µg/mL) | > 10 | -0.2 | – | – |
| C[C@@H]1Cc2c([nH]c3ccccc23)[C@@H](c2c(F)cc(OCCN3CC(CF)C3)cc2F)N1C(=O)[C@@H](C)CF | 115 (≈ 59.5 µg/mL) | 0.34 | 2.5 | 98 | – |
| C[C@@H]1Cc2c([nH]c3ccccc23)[C@@H](c2c(F)cc(OCCN3CC(CF)C3)cc2F)N1C(=O)C(C)(F)F | 30 (≈ 15.6 µg/mL) | 0.15 | – | 95 | – |
| CC(C)C(=O)N1[C@H](c2c(F)cc(OCCN3CC(CF)C3)cc2F)c2[nH]c3ccccc3c2C[C@H]1C | 135 (≈ 67.4 µg/mL) | 0.11 | – | 95 | – |
| C[C@@H]1Cc2c([nH]c3ccccc23)[C@@H](c2c(F)cc(OC3CN(CCCF)C3)cc2F)N1CC(C)(C)F | < 1 | – | – | 100 | Papp B→A [5]: 0.2 ×10⁻⁶ cm/s; Papp A→B [6]: 0.4 ×10⁻⁶ cm/s; fraction unbound [7]: < 0.001 |
| C[C@@H]1Cc2c([nH]c3ccccc23)[C@@H](c2c(F)cc(OCCN3CC(CF)C3)cc2F)N1C(=O)C1CC1 | 181 (≈ 90.1 µg/mL) | 3 | 2.1 | 89 | – |
| CC(=O)N1[C@H](c2c(F)cc(OCCN3CC(CF)C3)cc2F)c2[nH]c3ccccc3c2C[C@H]1C | 53 (≈ 25 µg/mL) | – | 2.5 | 91 | – |
| C[C@@H]1Cc2c([nH]c3ccccc23)[C@@H](c2c(F)cc(OC3CN(CCCF)C3)cc2F)N1C(=O)C1(F)CC1 | 13 (≈ 6.7 µg/mL) | 0.32 | 4.1 | 95 | – |
| CC/C(=C(\c1ccccc1)c1ccc(OCCN(C)C)cc1)c1ccccc1 | – | – | – | – | Activity [8]: Active |
| C[C@H](CF)C(=O)N1[C@H](c2c(F)cc(OCCN3CC(CF)C3)cc2F)c2[nH]c3ccccc3c2C[C@H]1C | 102 (≈ 52.8 µg/mL) | 0.4 | 2.5 | 96 | – |
| C[C@@H]1Cc2c([nH]c3ccccc23)[C@@H](c2ccc(OCCN3CC(CF)C3)cc2F)N1S(C)(=O)=O | 135 (≈ 66.1 µg/mL) | 0.19 | 2.5 | 93 | Papp B→A [5]: 5 ×10⁻⁶ cm/s; IC50 [9]: 0.4 nM; bioavailability [10]: 48%; Papp A→B [6]: 4 ×10⁻⁶ cm/s; Vd [11]: 9.6 L/kg; IC50 [12]: 17 nM; clearance [13]: 10.2 mL/min/kg; half-life [14]: 11 h |
| C[C@@H]1Cc2c([nH]c3ccccc23)[C@@H](c2c(F)cc(OCCN3CC(CF)C3)cc2F)N1S(C)(=O)=O | 113 (≈ 57.4 µg/mL) | – | 2.3 | 93 | Papp B→A [5]: 4 ×10⁻⁶ cm/s; IC50 [9]: 0.5 nM; bioavailability [10]: 47%; Papp A→B [6]: 4 ×10⁻⁶ cm/s; Vd [11]: 17.3 L/kg; %max [15]: 86%; clearance [13]: 27.5 mL/min/kg; half-life [14]: 7 h |
| C[C@@H]1Cc2c([nH]c3ccccc23)[C@@H](c2c(F)cc(OCCN3CC(CF)C3)cc2F)N1C(=O)C(C)(C)C | 92 (≈ 47.3 µg/mL) | 0.49 | 3.3 | 90 | – |
| C[C@@H]1Cc2c([nH]c3ccccc23)[C@@H](c2c(F)cc(OCCN3CC(CF)C3)cc2F)N1C(=O)C1COC1 | 117 (≈ 60.1 µg/mL) | 4 | 1.8 | 92 | – |
| C[C@@H]1Cc2c([nH]c3ccccc23)[C@@H](c2c(F)cc(OC3CN(CCCF)C3)cc2F)N1C(=O)C1(F)CCC1 | < 1 | 1.2 | 4.3 | 96 | – |
| C[C@@H]1Cc2c([nH]c3ccccc23)[C@@H](c2c(F)cc(OC3CN(CCCF)C3)cc2F)N1C(=O)C(C)(C)F | < 1 | 0.42 | 4 | 100 | – |
| C[C@@H]1Cc2c([nH]c3ccccc23)[C@@H](c2c(F)cc(OCCN3CC(CF)C3)cc2F)N1C(=O)CC1CC1 | 111 (≈ 56.8 µg/mL) | 5 | 3.1 | 95 | – |
| C[C@@H]1Cc2c([nH]c3ccccc23)[C@@H](c2ccc(OCCN3CC(CF)C3)cc2)N1S(C)(=O)=O | 118 (≈ 55.6 µg/mL) | 0.18 | 2.2 | 93 | Papp B→A [5]: 6 ×10⁻⁶ cm/s; AUC [16]: 28.9 µM·h; DC50 [17]: 1.2 nM; Activity [18]: Non-Toxic; IC50 [9]: 0.5 nM; bioavailability [10]: 32%; AUC [19]: 1.8 µM·h; Papp A→B [6]: 5 ×10⁻⁶ cm/s; Vd [11]: 7.7 L/kg; IC50 [12]: 11 nM; Activity [20]: Active; %max [15]: 82%; Activity [21]: Dose-Dependent Effect; clearance [13]: 7 mL/min/kg; half-life [14]: 13 h |
| CC(CO)C(=O)N1[C@H](c2c(F)cc(OCCN3CC(CF)C3)cc2F)c2[nH]c3ccccc3c2C[C@H]1C (some centres undefined) | 156 (≈ 80.4 µg/mL) | 4 | 1.8 | 91 | – |
| C[C@@H]1Cc2c([nH]c3ccccc23)[C@@H](c2c(F)cc(OCCN3CC(CF)C3)cc2F)N1C(=O)C(C)(C)F | 95 (≈ 49.2 µg/mL) | – | 3.2 | 94 | Papp B→A [5]: 1 ×10⁻⁶ cm/s; bioavailability [10]: 33%; Papp A→B [6]: 1 ×10⁻⁶ cm/s; Vd [11]: 32 L/kg; clearance [13]: 120 mL/min/kg; half-life [14]: 3.1 h |
